# From US10800792B2, “Inhibitors of Bruton's tyrosine kinase and method of their use” (JANSSEN PHARMACEUTICA NV, priority 2015, dated 2020)
# Target: unphosphorylated-BTK kinase domain (UP-BTK), GST-tagged human BTK (389-659aa) (Homo sapiens (Human), UniProt Q06187)
# Test: BTK kinase Lanthascreen binding assay
# Conditions: Lanthascreen tracer competition, 60 minutes incubation; pIC50 = negative log of the IC50 in molar
# Summary of the method: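 Values are pIC50, i.e. negative log of IC50 in molar, derived from concentration–response fitting. Each compound competes with a fluorescently labelled tracer for the unphosphorylated kinase domain.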
# Chain of unphosphorylated-BTK kinase domain (UP-BTK), GST-tagged human BTK (389-659aa) (Q06187 389-659): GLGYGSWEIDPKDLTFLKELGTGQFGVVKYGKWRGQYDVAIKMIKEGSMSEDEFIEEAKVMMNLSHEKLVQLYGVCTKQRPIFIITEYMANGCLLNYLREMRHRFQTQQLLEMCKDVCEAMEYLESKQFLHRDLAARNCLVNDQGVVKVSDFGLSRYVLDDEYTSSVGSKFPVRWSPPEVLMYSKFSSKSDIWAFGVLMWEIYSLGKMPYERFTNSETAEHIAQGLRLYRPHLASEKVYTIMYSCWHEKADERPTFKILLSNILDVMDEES
row,Compound,BTK_I_binding pIC50
1,"Cc1ccccc1N1C(=O)Nc2c(C(=O)NC3CCCN(C(=O)/C(C#N)=C/C4CC4)C3)sc3nccc1c23 (centres unmarked) [Example 886, (E)-N-(1-(2-Cyano-3-cyclopropylacryloyl)piperidin-3-yl)-4-oxo-5-(o-tolyl)-4,5-dihydro-3H-1-thia-3,5,8-triazaacenaphthylene-2-carboxamide]",7.0
2,"C=CC(=O)N1CCC[C@@H](NC(=O)c2sc3nccc4c3c2NC(=O)N4c2ccc(OC3CCOCC3)cc2C)C1 (single isomer, unassigned) [Example 814, (R)—N-(1-Acryloylpiperidin-3-yl)-5-(*R)-(2-methyl-4-((tetrahydro-2H-pyran-4-yl)oxy)phenyl)-4-oxo-4,5-dihydro-3H-1-thia-3,5,8-triazaacenaphthylene-2-carboxamide]",<6
3,"C=CC(=O)N1CCC[C@@H](NC(=O)c2sc3nccc4c3c2NC(=O)N4c2ccc(Oc3ccccc3)nc2C)C1 [Example 670, (R)—N-(1-Acryloylpiperidin-3-yl)-5-(2-methyl-6-phenoxypyridin-3-yl)-4-oxo-4,5-dihydro-3H-1-thia-3,5,8-triazaacenaphthylene-2-carboxamide]",8.2

# Same assay, conditions: pIC50 = negative log of the IC50 in molar; 60 minutes incubation, 50 nM Tracer 236
row,Compound,BTK_I_binding pIC50
1,"C=C(C)C(=O)N1CCC[C@@H](NC(=O)c2sc3nccc4c3c2NC(=O)N4c2ccc(Oc3ccccc3)cc2C)C1 [Example 204, (R)—N-(1-Methacryloylpiperidin-3-yl)-5-(2-methyl-4-phenoxyphenyl)-4-oxo-4,5-dihydro-3H-1-thia-3,5,8-triazaacenaphthylene-2-carboxamide]",6.9
2,"COC[C@H](O)C(=O)N1CCC[C@@H](NC(=O)c2sc3nccc4c3c2NC(=O)N4c2ccc(Oc3ccccc3)cc2C)C1 [Example 122, N—((R)-1-((S)-2-Hydroxy-3-methoxypropanoyl)piperidin-3-yl)-5-(2-methyl-4-phenoxyphenyl)-4-oxo-4,5-dihydro-3H-1-thia-3,5,8-triazaacenaphthylene-2-carboxamide]",7.4
3,"C/C=C/C(=O)N1CCC[C@@H](NC(=O)c2sc3nccc4c3c2NC(=O)N4c2ccc(Oc3ccccc3)cc2C)C1 (single isomer, unassigned) [Example 100, (R,E)-N-(1-(But-2-enoyl)piperidin-3-yl)-5-(*S)-(2-methyl-4-phenoxyphenyl)-4-oxo-4,5-dihydro-3H-1-thia-3,5,8-triazaacenaphthylene-2-carboxamide]",7.1
4,"C=CC(=O)N1CCC[C@@H](NC(=O)c2sc3nccc4c3c2NC(=O)N4c2c(F)cc(Oc3ccccc3)cc2F)C1 [Example 69, (R)—N-(1-Acryloylpiperidin-3-yl)-5-(2,6-difluoro-4-phenoxyphenyl)-4-oxo-4,5-dihydro-3H-1-thia-3,5,8-triazaacenaphthylene-2-carboxamide]",7.7
5,"Cc1cc(Oc2ccccc2)ccc1N1C(=O)Nc2c(C(=O)N[C@@H]3C[C@@H](O)CN(C)C3)sc3nccc1c23 [Example 168, N-((3R,5R)-5-Hydroxy-1-methylpiperidin-3-yl)-5-(2-methyl-4-phenoxyphenyl)-4-oxo-4,5-dihydro-3H-1-thia-3,5,8-triazaacenaphthylene-2-carboxamide]",6.8
6,"Cc1cc(Oc2ccccc2)ccc1N1C(=O)Nc2c(C(=O)NC3CCNCC3C)sc3nccc1c23 (centres unmarked) [Example 172, 5-(2-Methyl-4-phenoxyphenyl)-N-(3-methylpiperidin-4-yl)-4-oxo-4,5-dihydro-3H-1-thia-3,5,8-triazaacenaphthylene-2-carboxamide]",6.7
7,"Cc1cc(Oc2ccccc2C2CC2)ccc1N1C(=O)Nc2c(C(=O)N[C@@H]3CCCN(C)C3)sc3nccc1c23 [Example 201, (R)-5-(4-(2-Cyclopropylphenoxy)-2-methylphenyl)-N-(1-methylpiperidin-3-yl)-4-oxo-4,5-dihydro-3H-1-thia-3,5,8-triazaacenaphthylene-2-carboxamide]",6.6
8,"Cc1c(N2C(=O)Nc3c(C(=O)N[C@@H]4CCCN(C(=O)CO)C4)sc4nccc2c34)ccc(Oc2ccccc2)c1F [Example 114, (R)-5-(3-Fluoro-2-methyl-4-phenoxyphenyl)-N-(1-(2-hydroxyacetyl)piperidin-3-yl)-4-oxo-4,5-dihydro-3H-1-thia-3,5,8-triazaacenaphthylene-2-carboxamide]",7.3
9,"C=CC(=O)N1CC[C@@H](NC(=O)c2sc3nccc4c3c2NC(=O)N4c2c(Cl)ccc3c2OCO3)C1 [Example 209, (R)—N-(1-Acryloylpyrrolidin-3-yl)-5-(5-chlorobenzo[d][1,3]dioxol-4-yl)-4-oxo-4,5-dihydro-3H-1-thia-3,5,8-triazaacenaphthylene-2-carboxamide]",7.1
10,"Cc1cc(Oc2ccccc2)ccc1N1C(=O)Nc2c(C(=O)N[C@H]3CNC[C@@H]3F)sc3nccc1c23 [Example 218, N-((3S,4S)-4-Fluoropyrrolidin-3-yl)-5-(2-methyl-4-phenoxyphenyl)-4-oxo-4,5-dihydro-3H-1-thia-3,5,8-triazaacenaphthylene-2-carboxamide]",6.8
11,"Cc1cc(Oc2ccccc2)ccc1N1C(=O)Nc2c(C(=O)N[C@@H]3C[C@H](O)CN(C)C3)sc3nccc1c23 [Example 266, N-((3R,5S)-5-Hydroxy-1-methylpiperidin-3-yl)-5-(2-methyl-4-phenoxyphenyl)-4-oxo-4,5-dihydro-3H-1-thia-3,5,8-triazaacenaphthylene-2-carboxamide]",6.3

# Same assay, conditions: unphosphorylated-BTK kinase domain, 50 nM Tracer 236, 60 minutes; pIC50 = negative log of the IC50 in molar
row,Compound,BTK_I_binding pIC50
1,"Cc1cc(Oc2ccccc2)ccc1N1C(=O)Nc2c(C(=O)NC3(CO)CCOCC3)sc3nccc1c23 [Example 436, N-(4-(Hydroxymethyl)tetrahydro-2H-pyran-4-yl)-5-(*S)-(2-methyl-4-phenoxyphenyl)-4-oxo-4,5-dihydro-3H-1-thia-3,5,8-triazaacenaphthylene-2-carboxamide]",7.3
2,"COc1ccc(N2C(=O)Nc3c(C(=O)N[C@@H]4CCCNC4)sc4nccc2c34)cc1 [Example 342, (R)-5-(4-Methoxyphenyl)-4-oxo-N-(piperidin-3-yl)-4,5-dihydro-3H-1-thia-3,5,8-triazaacenaphthylene-2-carboxamide]",5.2
3,"CN(C)C/C=C/C(=O)N1CC[C@@H](NC(=O)c2sc3nccc4c3c2NC(=O)N4c2ccc(Oc3ccccc3)cc2)C1 [Example 440, (R,E)-N-(1-(4-(Dimethylamino)but-2-enoyl)pyrrolidin-3-yl)-4-oxo-5-(4-phenoxyphenyl)-4,5-dihydro-3H-1-thia-3,5,8-triazaacenaphthylene-2-carboxamide]",7.6
4,"COc1ccc(N2C(=O)Nc3c(C(=O)N[C@@H]4CCCN(C)C4)sc4nccc2c34)c(C)c1 [Example 340, (R)-5-(4-Methoxy-2-methylphenyl)-N-(1-methylpiperidin-3-yl)-4-oxo-4,5-dihydro-3H-1-thia-3,5,8-triazaacenaphthylene-2-carboxamide]",5.3
5,"Cc1cc(Oc2ccccc2)ccc1N1C(=O)Nc2c(C(=O)N[C@@H]3CCCN(C(=O)/C=C/CN(C)C)C3)sc3nccc1c23 (single isomer, unassigned) [Example 488, (R,E)-N-(1-(4-(Dimethylamino)but-2-enoyl)piperidin-3-yl)-5-(*S)-(2-methyl-4-phenoxyphenyl)-4-oxo-4,5-dihydro-3H-1-thia-3,5,8-triazaacenaphthylene-2-carboxamide]",7.2
6,"O=C(NC1CCCNC1=O)c1sc2nccc3c2c1NC(=O)N3c1ccc(Oc2ccccc2)cc1 (centres unmarked) [Example 458, 4-Oxo-N-(2-oxopiperidin-3-yl)-5-(4-phenoxyphenyl)-4,5-dihydro-3H-1-thia-3,5,8-triazaacenaphthylene-2-carboxamide]",6.2
7,"C=CC(=O)N1CCC[C@@H](NC(=O)c2sc3nccc4c3c2NC(=O)N4c2ccc(OC3CCC3)cc2C)C1 [Example 456, (R)—N-(1-Acryloylpiperidin-3-yl)-5-(4-cyclobutoxy-2-methylphenyl)-4-oxo-4,5-dihydro-3H-1-thia-3,5,8-triazaacenaphthylene-2-carboxamide]",7.7
8,"Cc1ccc(-c2cccc(N3C(=O)Nc4c(C(=O)N[C@@H]5CCCNC5)sc5nccc3c45)c2)cc1 [Example 580, (R)-5-(4′-Methyl-[1,1′-biphenyl]-3-yl)-4-oxo-N-(piperidin-3-yl)-4,5-dihydro-3H-1-thia-3,5,8-triazaacenaphthylene-2-carboxamide]",6.9
9,"O=C(N[C@@H]1CCCNC1)c1sc2nccc3c2c1NC(=O)N3c1cccc(Cc2ccccc2)c1 [Example 465, (R)-5-(3-Benzylphenyl)-4-oxo-N-(piperidin-3-yl)-4,5-dihydro-3H-1-thia-3,5,8-triazaacenaphthylene-2-carboxamide]",6.2
10,"CN(C)CC(=O)N1CCC[C@@H](NC(=O)c2sc3nccc4c3c2NC(=O)N4c2ccc(Oc3ccccc3)cc2)C1 [Example 424, (R)—N-(1-(2-(Dimethylamino)acetyl)piperidin-3-yl)-4-oxo-5-(4-phenoxyphenyl)-4,5-dihydro-3H-1-thia-3,5,8-triazaacenaphthylene-2-carboxamide]",7.2
11,"O=C(N[C@@H]1CCCNC1)c1sc2nccc3c2c1NC(=O)N3c1ccc2ccccc2c1 [Example 429, (R)-5-(Naphthalen-2-yl)-4-oxo-N-(piperidin-3-yl)-4,5-dihydro-3H-1-thia-3,5,8-triazaacenaphthylene-2-carboxamide]",<5

# Same assay, conditions: unphosphorylated-BTK kinase domain, 60 minutes incubation, 50 nM Tracer 236; pIC50 = negative log of the IC50 in molar
row,Compound,BTK_I_binding pIC50
1,"Cc1cc(N2C(=O)Nc3c(C(=O)N[C@@H]4CCCNC4)sc4nccc2c34)ccc1OC(C)C [Example 955, (R)-5-(4-Isopropoxy-3-methylphenyl)-4-oxo-N-(piperidin-3-yl)-4,5-dihydro-3H-1-thia-3,5,8-triazaacenaphthylene-2-carboxamide]",<5
